Measured values reported in article PMC9457828, “Chemical Markers and Pharmacological Characters of Pelargonium graveolens Essential Oil from Palestine” (Molecules, 2022).
≈ marks a conversion by molar mass, not a printed value. Marks after values point to notes of the source that are not given here.

Assays:
Proteus vulgaris (8427) = assay: Broth microdilution, P. vulgaris; format: cell-based
Excerpt: (§1) The microdilution method was used to assess the antimicrobial activity of the PGEO against selected bacterial and fungal strains according to the method [49].

[1] = system: methicillin-resistant S. aureus (MRSA); assay: Broth microdilution, MRSA; format: cell-based; details: Staphylococcus aureus, clinical strain
Excerpt: as §1

[2] = system: Klebsiella pneumonia (13,883); assay: Broth microdilution, K. pneumoniae; format: cell-based
Excerpt: as §1

[3] = system: Escherichia coli (25,922); assay: Broth microdilution, E. coli; format: cell-based
Excerpt: as §1

[4] = system: Pseudomonas aeruginosa (9027); assay: Broth microdilution, P. aeruginosa; format: cell-based
Excerpt: as §1

[5] = system: Staphylococcus aureus (2592); assay: Broth microdilution, S. aureus; format: cell-based
Excerpt: as §1

Hep3B = assay: cells; format: cell-based; details: Homo sapiens, 24 h, MTS
Procedure: Human cervical (HeLa), breast (MCF-7), and liver (Hep3B) cancer cell lines were cultured in RPMI-1640 medium (Sigma-Norwich, Norfolk, UK). Then each kind of the tested cells was treated with 10% fetal bovine serum mixed with 1% penicillin/streptomycin antibiotics (BI, Ghaziabad, UP, India), and 1% L-glutamine (Sigma-Norwich, Norfolk, UK). The cancer cells were cultured at 37 °C in a humidified atmosphere with 5% CO2 and then planted in a 96-well plate at 2.6 × 10^4 cells/well. After 2 days, the EO with different concentrations (10, 30, 60, 120, and 500 µg/mL) was applied to the cells for 24 h. According to the manufacturer’s guidelines, cell viability was estimated by the CellTilter 96® Aqueous One Solution Cell Proliferation (MTS) method. In the end, 100 μL of media and 20 μL of MTS solution were added to each well, and the well plates were incubated at 37 °C for 2 h. The absorbance was measured at 490 nm.

[6] = system: Candida albicans (ATCC 90028); assay: Broth microdilution, C. albicans; format: cell-based; details: ATCC90028
Excerpt: as §1

lipase = target: lipase; parameters: method as in earlier work; details: PGEO from Jordan; cited from earlier work
[7] = DPPH free radical scavenging activity; details: anti-DPPH radical activity, 30 min, 517 nm
Procedure: Spectrophotometry at 517 nm was used to measure the absorbance, which was then compared with the control. The DPPH suppressant effect was calculated using the formula below: […]

S. aureus species = system: S. aureus species; parameters: method as in PMID 31284397; details: cited from earlier work
E. coli = system: E. coli; parameters: method as in PMID 26221178; details: cited from earlier work
S. aureus = system: S. aureus; parameters: method as in PMID 26221178; details: cited from earlier work

With `CC1(C)S[C@@H]2[C@H](NC(=O)[C@H](N)c3ccccc3)C(=O)N2[C@H]1C(=O)O` [Ampicillin] the MIC (Proteus vulgaris (8427)) was 3.25 ± 0.21 µg/mL (≈ 9.3 µM), the MIC [1] was 32 ± 0.64 µg/mL (≈ 91.6 µM) and the MIC [2] was 12.5 ± 0.05 µg/mL (≈ 35.8 µM). For the same compound, the MIC [3] was 3.12 ± 0.56 µg/mL (≈ 8.93 µM), the MIC [4] was 100 ± 1.01 µg/mL (≈ 286 µM) and the MIC [5] was 6.25 ± 0.2 µg/mL (≈ 17.9 µM).

`O=C(O)c1cn(C2CC2)c2cc(N3CCNCC3)c(F)cc2c1=O` [Ciprofloxacin] gave an MIC (Proteus vulgaris (8427)) of 0.06 ± 0.001 µg/mL (≈ 0.181 µM) and an MIC [2] of 0.06 ± 0.001 µg/mL (≈ 0.181 µM).

In the case of `COc1cccc2c1C(=O)c1c(O)c3c(c(O)c1C2=O)C[C@@](O)(C(=O)CO)C[C@@H]3O[C@H]1C[C@H](N)[C@H](O)[C@H](C)O1` [Doxorubicin], the IC50 (Hep3B) is reported as 1.21 ± 1 µg/mL (≈ 2.23 µM).

Compound `OC(Cn1cncn1)(Cn1cncn1)c1ccc(F)cc1F` [Fluconazole] has an MIC [6] of 3.12 ± 0.01 µg/mL (≈ 10.2 µM).

In the case of `CCCCCCCCCCC[C@@H](C[C@@H]1OC(=O)[C@H]1CCCCCC)OC(=O)[C@H](CC(C)C)NC=O` [Orlistat], the “anti-lipase IC50” value (lipase) is given as 0.114 ± 0.0 µg/mL.

For `Cc1c(C)c2c(c(C)c1O)CCC(C)(C(=O)O)O2` (stereo not drawn) [Trolox], the “IC50 against DPPH” value [7] was 1.88 ± 0.45 ^a µg/mL.

In the case of `CC(C)=CCCC(C)CCO` (stereo not drawn) [citronellol], the “MIC S. aureus” value (S. aureus species) is listed as 30 µg/mL (≈ 192 µM), the “MIC E. coli” value (E. coli) is listed as 300 µg/mL (≈ 1920 µM) and the “MIC S. aureus” value (S. aureus) is listed as 400 µg/mL (≈ 2560 µM).
